Holding throughout (assay type): cell-based, human
Assay [1] deals with HR+, HER2+ BT474 breast cancer spheroids. Briefly: Multicellular tumor spheroid growth inhibition (SGI), BT474. The procedure: (§1) The purpose of this example was to evaluate the combination effect of PF-07220060 and endocrine therapy in multicellular tumor spheroid growth inhibition (SGI). To model the characteristics and cellular behavior of human tumors, the activity of PF-07220060 was evaluated in three dimensional MCTS models of HR+ breast cancer and AR+ prostate cancer following PF-07220060 treatment as a single agent and in combination with fulvestrant • 1) in HR+, HER2-T47D breast cancer spheroids. • 2) in HR+, HER2+BT474 breast cancer spheroids, • 3) in BT474 spheroids, and • 4) in AR+ prostate carcinoma cell line (LNCaP) prostate cancer spheroids. Spheroids were treated with increasing concentrations of 100, 300, or 1000 nM PF-07220060 and compared to palbociclib at the clinically relevant concentration of 30 nM. Single agent PF-07220060 inhibited spheroid growth in a dose-dependent manner, with highest efficacy (86% SGI over the duration of treatment with 1000 nM) shown in the T47D BC spheroid model (Table 1). Combining 100 nM PF-07220060 with 1 nM fulvestrant in T47D cells increased SGI to 96% compared to either single agent alone (57 to 67% SGI with 100 nM PF-07220060 or 79% SGI with fulvestrant) (Table 1). BT474 spheroids were relatively less sensitive to PF-07220060 resulting in 52% SGI at 1000 nM.

For assay [2], the system named is HR+, HER2- T47D breast cancer spheroids. Briefly: Multicellular tumor spheroid growth inhibition (SGI), T47D. The procedure: as §1
The subject of assay [3] is AR+ prostate carcinoma cell line (LNCaP) prostate cancer spheroids. Kind of assay: Multicellular tumor spheroid growth inhibition (SGI), LNCaP. The procedure: The purpose of this example was to evaluate the combination effect of PF-07220060 and endocrine therapy in multicellular tumor spheroid growth inhibition (SGI). To model the characteristics and cellular behavior of human tumors, the activity of PF-07220060 was evaluated in three dimensional MCTS models of HR+ breast cancer and AR+ prostate cancer following PF-07220060 treatment as a single agent and in combination with fulvestrant • 1) in HR+, HER2-T47D breast cancer spheroids. • 2) in HR+, HER2+BT474 breast cancer spheroids, • 3) in BT474 spheroids, and • 4) in AR+ prostate carcinoma cell line (LNCaP) prostate cancer spheroids. Spheroids were treated with increasing concentrations of 100, 300, or 1000 nM PF-07220060 and compared to palbociclib at the clinically relevant concentration of 30 nM.

Where “and” joins values, the source holds several entries; their conditions need not be identical. Equal values may be shown once.

Turning to `C[C@]12CC[C@@H]3c4ccc(O)cc4C[C@@H](CCCCCCCCC[S+]([O-])CCCC(F)(F)C(F)(F)F)[C@H]3[C@@H]1CC[C@@H]2O` (stereo partly drawn) [Fulvestrant, reference compound], the SGI in assay [1] (100 nM single agent) turned out to be 10%; in assay [2] (1 nM single agent), 79%.
Regarding `CC(=O)c1c(C)c2cnc(Nc3ccc(N4CCNCC4)cn3)nc2n(C2CCCC2)c1=O` [Palbociclib, reference compound], the SGI is 0% and 5% and 1% in assay [1] (30 nM single agent); 5% in assay [3] (30 nM single agent); 24% in assay [3] (100 nM single agent); 38% and 49% in assay [2] (30 nM single agent).

Values taken from patent US20250041298A1, “CDK4 INHIBITOR FOR THE TREATMENT OF CANCER” (Pfizer Inc., priority 2021, published 2025).
